Measurements: US20250176550A1, “HERBICIDE COMPOSITION OF URACIL COMPOUND CONTAINING CARBOXYLATE FRAGMENT AND THE USE THEREOF” (Jiangsu Flag Chemical Industry Co., Ltd., priority 2022, published 2025)

Tests used:
Assay in all cases: Indoor virulence and combined effect, greenhouse pot test, post-emergence stem and leaf spray, fresh weight inhibition
Type in all cases: in vivo
[1] = test system: eleusine indica
Outline: (§1)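 Weeds in greenhouse pots received a spray-tower treatment, either post-emergence at the 3–4 leaf (grasses) or 4–6 leaf (broadleaf) stage, or pre-emergence as a soil spray 24 h after sowing. Compounds were applied in acetone diluted with 0.1 wt% Tween-80 water, alone or mixed, in g/ha. Fresh weight inhibition was measured at 21 days, with synergy judged by Gowing expected efficacy (E−E0 >10%).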

[2] = test system: lolium multiflorum
Outline: as §1

[3] = test system: digitaria sanguinalis; settings: for Fresh weight suppression rate %, A single agent: Table 14
Outline: as §1

[4] = test system: alopecurus japonicus
Outline: as §1

[5] = test system: echinochloa crusgalli
Outline: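 Greenhouse potted weeds sprayed post-emergence on stem and leaf at 3–4 leaf stage, with A and B alone or mixed; acetone solutions diluted in 0.1 wt% Tween-80, solvent-emulsifier water as blank.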

`COCCOC(=O)C(C)(C)OC(=O)c1cc(-n2c(=O)cc(C(F)(F)F)n(C)c2=O)c(F)cc1Cl` [Compound A-273] was tested, and the “Fresh weight inhibition rate %, A single agent” value (“Fresh weight inhibition rate %” below) ([1]; Table 18, A 5 g a.i./ha) was 34.65%, the “Fresh weight inhibition rate %” value ([1]; Table 18, A 10 g a.i./ha) was 43.34% and the “Fresh weight inhibition rate %” value ([1]; Table 18, A 15 g a.i./ha) was 55.00%. For the same molecule, the “Fresh weight inhibition rate %” value ([1]; Table 18, A 20 g a.i./ha) was 68.03%, the “Fresh weight inhibition rate %” value ([1]; Table 32, A 15 g a.i./ha) was 55.00% and the “Fresh weight inhibition rate %” value ([1]; Table 32, A 20 g a.i./ha) was 68.03%. The “Fresh weight inhibition rate %” value ([1]; Table 32, A 25 g a.i./ha) was 70.36%, the “Fresh weight inhibition rate %” value ([1]; Table 33, A 10 g a.i./ha) was 43.34% and the “Fresh weight inhibition rate %” value ([1]; Table 33, A 15 g a.i./ha) was 55.00%. For the same molecule, the “Fresh weight inhibition rate %” value ([1]; Table 33, A 20 g a.i./ha) was 68.03%, the “Fresh weight inhibition rate %” value ([1]; Table 33, A 25 g a.i./ha) was 70.36% and the “Fresh weight inhibition rate %” value ([1]; Table 33, A 30 g a.i./ha) was 75.35%. The “Fresh weight inhibition rate %” value ([1]; Table 35, A 10 g a.i./ha) was 43.34%, the “Fresh weight inhibition rate %” value ([1]; Table 35, A 15 g a.i./ha) was 55.00% and the “Fresh weight inhibition rate %” value ([1]; Table 35, A 20 g a.i./ha) was 68.03%. The “Fresh weight inhibition rate %” value ([1]; Table 35, A 25 g a.i./ha) was 70.36%, the “Fresh weight inhibition rate %” value ([1]; Table 36, A 5 g a.i./ha) was 34.65% and the “Fresh weight inhibition rate %” value ([1]; Table 36, A 10 g a.i./ha) was 43.34%. For the same molecule, the “Fresh weight inhibition rate %” value ([1]; Table 36, A 15 g a.i./ha) was 55.00%, the “Fresh weight inhibition rate %” value ([1]; Table 36, A 20 g a.i./ha) was 68.03% and the “Fresh weight inhibition rate %” value ([1]; Table 36, A 25 g a.i./ha) was 70.36%. The “Fresh weight inhibition rate %” value ([2]; Table 19, A 5 g a.i./ha) was 22.25%, the “Fresh weight inhibition rate %” value ([2]; Table 19, A 10 g a.i./ha) was 50.48% and the “Fresh weight inhibition rate %” value ([2]; Table 19, A 15 g a.i./ha) was 55.50%. For the same molecule, the “Fresh weight inhibition rate %” value ([2]; Table 19, A 20 g a.i./ha) was 60.05%, the “Fresh weight inhibition rate %” value ([2]; Table 20, A 5 g a.i./ha) was 22.25% and the “Fresh weight inhibition rate %” value ([2]; Table 20, A 10 g a.i./ha) was 50.48%. The “Fresh weight inhibition rate %” value ([2]; Table 20, A 15 g a.i./ha) was 55.50%, the “Fresh weight inhibition rate %” value ([2]; Table 20, A 20 g a.i./ha) was 60.05% and the “Fresh weight inhibition rate %” value ([2]; Table 27, A 15 g a.i./ha) was 55.5%. The “Fresh weight inhibition rate %” value ([2]; Table 27, A 20 g a.i./ha) was 60.05%, the “Fresh weight inhibition rate %” value ([2]; Table 27, A 25 g a.i./ha) was 77.30% and the “Fresh weight inhibition rate %” value ([3]; Table 1, 10 g a.i./ha, post-emergence, 21 days after treatment) was 45.50%. The “Fresh weight inhibition rate %” value ([3]; Table 1, 12.5 g a.i./ha, post-emergence, 21 days after treatment) was 55.30%, the “Fresh weight inhibition rate %” value ([3]; Table 1, 20 g a.i./ha, post-emergence, 21 days after treatment) was 60.47% and the “Fresh weight inhibition rate %” value ([3]; Table 1, 25 g a.i./ha, post-emergence, 21 days after treatment) was 62.48%. For the same molecule, the “Fresh weight inhibition rate %” value ([3]; Table 13, A 20 g a.i./ha) was 60.47%, the “Fresh weight inhibition rate %” value ([3]; Table 13, A 25 g a.i./ha) was 62.48% and the “Fresh weight inhibition rate %” value ([3]; Table 13, A 30 g a.i./ha) was 63.97%. The “Fresh weight suppression rate %, A single agent” value (“Fresh weight suppression rate %” for short) ([3]; A 10 g a.i./ha) was 31.16%, the “Fresh weight suppression rate %” value ([3]; A 15 g a.i./ha) was 59.30% and the “Fresh weight suppression rate %” value ([3]; A 20 g a.i./ha) was 60.47%. For the same molecule, the “Fresh weight suppression rate %” value ([3]; A 30 g a.i./ha) was 65.40%, the “Fresh weight inhibition rate %” value ([3]; Table 15, A 15 g a.i./ha) was 59.3% and the “Fresh weight inhibition rate %” value ([3]; Table 15, A 20 g a.i./ha) was 60.47%. The “Fresh weight inhibition rate %” value ([3]; Table 15, A 25 g a.i./ha) was 62.48%, the “Fresh weight inhibition rate %” value ([3]; Table 16, A 10 g a.i./ha) was 9.55% and the “Fresh weight inhibition rate %” value ([3]; Table 16, A 20 g a.i./ha) was 45.07%. For the same molecule, the “Fresh weight inhibition rate %” value ([3]; Table 16, A 25 g a.i./ha) was 58.81%, the “Fresh weight inhibition rate %” value ([3]; Table 16, A 30 g a.i./ha) was 60.30% and the “Fresh weight inhibition rate %” value ([3]; Table 41, A 10 g a.i./ha) was 45.50%. For the same molecule, the “Fresh weight inhibition rate %” value ([3]; Table 41, A 15 g a.i./ha) was 59.30%, the “Fresh weight inhibition rate %” value ([3]; Table 41, A 20 g a.i./ha) was 60.47% and the “Fresh weight inhibition rate %” value ([3]; Table 41, A 25 g a.i./ha) was 62.48%. The “Fresh weight inhibition rate %” value ([4]; Table 5, 15 g a.i./ha, post-emergence, 21 days after treatment) was 44.57%, the “Fresh weight inhibition rate %” value ([4]; Table 5, 20 g a.i./ha, post-emergence, 21 days after treatment) was 61.55% and the “Fresh weight inhibition rate %” value ([4]; Table 5, 25 g a.i./ha, post-emergence, 21 days after treatment) was 72.42%. The “Fresh weight inhibition rate %” value ([4]; Table 25, A 15 g a.i./ha) was 44.57%, the “Fresh weight inhibition rate %” value ([4]; Table 25, A 20 g a.i./ha) was 61.55% and the “Fresh weight inhibition rate %” value ([4]; Table 25, A 25 g a.i./ha) was 72.42%. The “Fresh weight inhibition rate %” value ([4]; Table 25, A 30 g a.i./ha) was 86.91%, the “Fresh weight inhibition rate %” value ([5]; Table 17, 15 g a.i./ha, post-emergence, 21 days after treatment) was 30.04% and the “Fresh weight inhibition rate %” value ([5]; Table 17, 20 g a.i./ha, post-emergence, 21 days after treatment) was 21.43%. The “Fresh weight inhibition rate %” value ([5]; Table 17, 25 g a.i./ha, post-emergence, 21 days after treatment) was 19.41%, the “Fresh weight inhibition rate %” value ([5]; Table 37, A 10 g a.i./ha) was 19.41% and the “Fresh weight inhibition rate %” value ([5]; Table 37, A 15 g a.i./ha) was 21.43%. For the same molecule, the “Fresh weight inhibition rate %” value ([5]; Table 37, A 20 g a.i./ha) was 30.04%, the “Fresh weight inhibition rate %” value ([5]; Table 37, A 25 g a.i./ha) was 38.28% and the “Fresh weight inhibition rate %” value ([5]; Table 44, A 10 g a.i./ha) was 19.41%. For the same molecule, the “Fresh weight inhibition rate %” value ([5]; Table 44, A 15 g a.i./ha) was 21.43%, the “Fresh weight inhibition rate %” value ([5]; Table 44, A 20 g a.i./ha) was 30.04% and the “Fresh weight inhibition rate %” value ([5]; Table 44, A 25 g a.i./ha) was 38.28%.
